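Cultured in 96-well plates, cells were exposed to test compound for 48 hours across five concentrations. Abbreviation: GI50, concentration required for 50% inhibition of growth.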 Active and inactive are the calls of the source. Rule as the data show it: active = GI50 up to about 1.1 µM and inactive = higher.
Legend:
Experiment in all cases: inhibition of tumour cell growth, NCI panel, 48 h
HCT-116 = tested on: HCT-116
IGROV-1 = tested on: IGROV-1
DU-145 = tested on: DU-145
TK-10 = tested on: TK-10
UACC-257 = tested on: UACC-257
MOLT-4 = tested on: MOLT-4
SNB-19 = tested on: SNB-19
UACC-62 = tested on: UACC-62
NCI-H522 = tested on: NCI-H522
RXF 393 = tested on: RXF 393
Hs-578T = tested on: Hs-578T
ACHN = tested on: ACHN
SW-620 = tested on: SW-620
A498 = tested on: A498
MCF7 = tested on: MCF7
T47D = tested on: T47D
OVCAR-3 = tested on: OVCAR-3
OVCAR-4 = tested on: OVCAR-4
KM-20L2 = tested on: KM-20L2
M19-MEL = tested on: M19-MEL

| Structure (SMILES) | GI50 (HCT-116) | GI50 (IGROV-1) | GI50 (DU-145) | GI50 (TK-10) | GI50 (UACC-257) | GI50 (MOLT-4) | GI50 (SNB-19) | GI50 (UACC-62) | GI50 (NCI-H522) | GI50 (RXF 393) | GI50 (Hs-578T) | GI50 (ACHN) | GI50 (SW-620) | GI50 (A498) | GI50 (MCF7) | GI50 (T47D) | GI50 (OVCAR-3) | GI50 (OVCAR-4) | GI50 (KM-20L2) | GI50 (M19-MEL) |
| --- | --- | --- | --- | --- | --- | --- | --- | --- | --- | --- | --- | --- | --- | --- | --- | --- | --- | --- | --- | --- |
| Cc1cc(S(=O)(=O)Nc2nnc3cc(C(F)(F)F)cc(C)n23)c(S)cc1Cl | > 81.8 µM (inactive) | > 100 µM (inactive) | > 100 µM (inactive) | > 100 µM (inactive) | > 100 µM (inactive) | > 100 µM (inactive) | 27.5 µM (inactive) | 56.4 µM (inactive) | > 100 µM (inactive) | > 100 µM (inactive) | > 72.4 µM (inactive) | > 100 µM (inactive) | > 100 µM (inactive) | 18.9 µM (inactive) | > 31.6 µM (inactive) | > 100 µM (inactive) | 64.1 µM (inactive) | > 100 µM (inactive) |  |  |
| CC1=C2CCCC2C/C(=N/Nc2ccc([N+](=O)[O-])cc2[N+](=O)[O-])CC1 (centres undefined) | > 100 µM (inactive) | > 100 µM (inactive) |  | > 100 µM (inactive) | > 100 µM (inactive) | > 100 µM (inactive) | > 100 µM (inactive) | > 100 µM (inactive) | > 100 µM (inactive) |  |  | > 100 µM (inactive) | > 100 µM (inactive) | > 100 µM (inactive) |  |  | > 100 µM (inactive) | > 100 µM (inactive) | > 100 µM (inactive) | > 100 µM (inactive) |
| C[C@]12CCC(=O)C=C1CC[C@@H]1C2CC[C@]2(C)Nc3c(cnn3-c3ccccc3)CC12 (some centres undefined) | > 100 µM (inactive) | > 100 µM (inactive) |  | > 100 µM (inactive) | > 100 µM (inactive) | > 100 µM (inactive) |  | > 100 µM (inactive) |  | > 100 µM (inactive) |  | > 100 µM (inactive) | > 100 µM (inactive) | > 100 µM (inactive) |  |  | > 10 µM (inactive) | > 100 µM (inactive) | > 100 µM (inactive) | > 100 µM (inactive) |
| C=C1CC2(CCS(=O)(=O)c3ccccc32)OC1=O (centres undefined) |  | 16.6 µM (inactive) |  | 12.9 µM (inactive) | 14.5 µM (inactive) | 3.49 µM (inactive) | 10.2 µM (inactive) | 15.9 µM (inactive) | 2.82 µM (inactive) |  |  | 11.5 µM (inactive) | 3.01 µM (inactive) | 17.3 µM (inactive) |  |  | 7.52 µM (inactive) | 13.7 µM (inactive) | 14.3 µM (inactive) | 17.5 µM (inactive) |
| C/C(=N/NC(=O)C[n+]1ccccc1)C(CN(CC(C)C)CC(C)C)C(=O)Nc1ccc(C)cc1C (centres undefined) | > 100 µM (inactive) | > 100 µM (inactive) |  | 78.2 µM (inactive) | > 100 µM (inactive) | > 100 µM (inactive) | 26.7 µM (inactive) | > 100 µM (inactive) | 40.8 µM (inactive) | 61.2 µM (inactive) |  | 54.5 µM (inactive) | > 100 µM (inactive) | 25.4 µM (inactive) |  |  |  | > 100 µM (inactive) | > 100 µM (inactive) | > 100 µM (inactive) |
| Cc1c(C)c(C)c(-n2c(=O)n(C)c(=O)n2-c2cc(C(C)(C)C)cc(C(C)(C)C)c2O)c(C)c1C | 5.79 µM (inactive) | 10.1 µM (inactive) | 12.7 µM (inactive) | 10.1 µM (inactive) | 9.66 µM (inactive) | 4.18 µM (inactive) | 5.74 µM (inactive) | 11.1 µM (inactive) | 4.54 µM (inactive) | 2.97 µM (inactive) | 10.4 µM (inactive) | 12.2 µM (inactive) | 13.6 µM (inactive) | 13.1 µM (inactive) | 4.06 µM (inactive) | 4.89 µM (inactive) | 4.68 µM (inactive) | 7.28 µM (inactive) |  |  |
| CCOc1ccc(NC(=O)CC2C(=O)Nc3ccccc3S2(=O)=O)cc1 (centres undefined) | > 100 µM (inactive) | > 100 µM (inactive) |  | > 100 µM (inactive) | > 100 µM (inactive) | > 100 µM (inactive) | 34.5 µM (inactive) |  | > 100 µM (inactive) | 64.1 µM (inactive) |  | > 100 µM (inactive) | > 100 µM (inactive) | > 100 µM (inactive) |  |  | 77.1 µM (inactive) | > 100 µM (inactive) | > 100 µM (inactive) | > 100 µM (inactive) |
| Cc1n(Cc2ccccc2)c2c([n+]1C)C(=O)c1ccccc1C2=O | 0.0416 µM (active) | 0.0301 µM (active) | 0.156 µM (active) | 0.265 µM (active) | 0.034 µM (active) | 0.0421 µM (active) | 0.0581 µM (active) | 0.17 µM (active) | 0.027 µM (active) | 0.294 µM (active) | 0.415 µM (active) | 0.873 µM (active) | 0.0455 µM (active) | 0.129 µM (active) | 0.0158 µM (active) | 0.215 µM (active) | < 0.0136 µM (active) | 0.0401 µM (active) |  |  |
| Cc1nsc2cc(Cl)n(C)c(=O)c12 | > 100 µM (inactive) | > 100 µM (inactive) |  | > 100 µM (inactive) | > 100 µM (inactive) | > 100 µM (inactive) | > 100 µM (inactive) |  | 24.8 µM (inactive) | > 100 µM (inactive) |  | > 100 µM (inactive) | > 100 µM (inactive) | > 100 µM (inactive) |  |  | > 100 µM (inactive) | > 100 µM (inactive) | > 100 µM (inactive) | > 100 µM (inactive) |
| COc1ccc(/C=C(/C#N)C(N)=O)cc1OC | > 100 µM (inactive) | > 100 µM (inactive) | > 100 µM (inactive) | > 100 µM (inactive) | > 100 µM (inactive) | > 100 µM (inactive) | > 100 µM (inactive) | > 100 µM (inactive) | > 100 µM (inactive) | > 100 µM (inactive) | > 100 µM (inactive) | > 100 µM (inactive) | > 100 µM (inactive) | 72.6 µM (inactive) | > 100 µM (inactive) | > 100 µM (inactive) | > 100 µM (inactive) | > 100 µM (inactive) |  |  |
| COCCOc1cc(C)cc(/C=C(C)/C=C/C2=C(C)CCCC2(C)C)n1 | 30.7 µM (inactive) | > 100 µM (inactive) |  | > 100 µM (inactive) | 33.2 µM (inactive) | 13.3 µM (inactive) | > 100 µM (inactive) | > 100 µM (inactive) | 28.9 µM (inactive) | 39.7 µM (inactive) |  | 84.3 µM (inactive) | 59.7 µM (inactive) | > 100 µM (inactive) |  |  | > 100 µM (inactive) | 59.2 µM (inactive) |  | 32.8 µM (inactive) |
| COc1ccc(C)cc1-c1ccc(-c2cc(C)ccc2OC)o1 | > 100 µM (inactive) | > 100 µM (inactive) |  | > 100 µM (inactive) | > 100 µM (inactive) | > 100 µM (inactive) | > 100 µM (inactive) | > 100 µM (inactive) | > 100 µM (inactive) |  |  | > 100 µM (inactive) | > 100 µM (inactive) | > 100 µM (inactive) |  |  | > 100 µM (inactive) | > 100 µM (inactive) | > 100 µM (inactive) | 54.6 µM (inactive) |
| CCOC(=O)C(=O)Nc1ccccc1OCC | > 100 µM (inactive) | > 100 µM (inactive) |  | > 100 µM (inactive) | > 100 µM (inactive) | > 100 µM (inactive) | > 100 µM (inactive) | > 100 µM (inactive) | > 100 µM (inactive) | > 100 µM (inactive) |  | > 100 µM (inactive) | > 100 µM (inactive) |  |  |  | > 100 µM (inactive) | > 100 µM (inactive) |  | > 100 µM (inactive) |
| CC(=O)NC1=C(NCCO)C(=O)c2ccccc2C1=O | 30.1 µM (inactive) | > 50 µM (inactive) |  | > 50 µM (inactive) | > 50 µM (inactive) | > 50 µM (inactive) | > 50 µM (inactive) | > 50 µM (inactive) | 24.5 µM (inactive) | > 50 µM (inactive) |  | > 50 µM (inactive) | > 50 µM (inactive) |  |  |  | 18.9 µM (inactive) | > 50 µM (inactive) | 24.2 µM (inactive) | 9.79 µM (inactive) |
| CN1N=CSC12C(=O)N(c1ccccc1)C(=O)N2c1ccccc1 (centres undefined) | > 100 µM (inactive) | > 100 µM (inactive) |  | > 100 µM (inactive) | > 100 µM (inactive) | > 100 µM (inactive) | > 100 µM (inactive) | > 100 µM (inactive) |  | > 100 µM (inactive) |  | > 100 µM (inactive) | > 100 µM (inactive) | > 100 µM (inactive) |  |  | > 100 µM (inactive) | 82.2 µM (inactive) | > 100 µM (inactive) | > 100 µM (inactive) |
| CC1SC2=NC3=C(c4ccccc4C3=O)C(c3ccc(Cl)cc3)N2C1=O (centres undefined) |  | > 100 µM (inactive) |  | > 100 µM (inactive) | > 100 µM (inactive) | > 100 µM (inactive) | > 100 µM (inactive) | > 100 µM (inactive) | 25.1 µM (inactive) |  |  | > 100 µM (inactive) | > 100 µM (inactive) | > 100 µM (inactive) |  |  | > 100 µM (inactive) | 61.1 µM (inactive) | > 100 µM (inactive) | > 100 µM (inactive) |
| COc1ccc(/C=C/C(=O)c2sc(NC(=S)NC(=O)c3ccccc3F)nc2C)cc1OC |  | > 100 µM (inactive) |  | > 100 µM (inactive) |  | 65.6 µM (inactive) | > 100 µM (inactive) | 85.9 µM (inactive) | 21.5 µM (inactive) | 36.5 µM (inactive) |  | > 100 µM (inactive) | > 100 µM (inactive) | > 100 µM (inactive) |  |  | > 100 µM (inactive) |  | > 100 µM (inactive) | > 100 µM (inactive) |
| C=C[C@H]1C=Cc2c(OC)cccc2[C@@H]1COP1(=S)NC(C)C(c2ccccc2)O1 (some centres undefined) | 52.8 µM (inactive) | > 100 µM (inactive) |  | > 100 µM (inactive) |  | 33.9 µM (inactive) | > 100 µM (inactive) | 84.5 µM (inactive) | 29.4 µM (inactive) | 51.1 µM (inactive) |  |  | > 100 µM (inactive) |  |  |  | > 100 µM (inactive) | > 100 µM (inactive) | > 100 µM (inactive) | 75 µM (inactive) |
